Results on ten molecules are retold here after patent publication US11655217B2, “Pyrazole MAGL inhibitors” (H. Lundbeck A/S, priority 2017, dated 2023).

The assay concerns the target MAGL (Mus musculus (Mouse), UniProt O35678). The experiment in a line: Mouse brain proteomes from inhibitor treated mice (oral gavage, sacrificed 4 h after administration, ABPP analysis). As to conditions: 5 mg/kg oral gavage.

Chain of MAGL (O35678 whole entry): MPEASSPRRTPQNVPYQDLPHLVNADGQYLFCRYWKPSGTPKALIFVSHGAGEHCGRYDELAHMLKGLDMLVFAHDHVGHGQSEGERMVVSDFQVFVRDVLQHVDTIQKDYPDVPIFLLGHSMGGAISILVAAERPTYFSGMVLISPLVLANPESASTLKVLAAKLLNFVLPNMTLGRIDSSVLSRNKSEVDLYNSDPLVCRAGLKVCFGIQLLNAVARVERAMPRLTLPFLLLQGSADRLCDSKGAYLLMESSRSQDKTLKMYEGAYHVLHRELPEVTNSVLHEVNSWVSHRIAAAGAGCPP
Method: Preparation of Mouse Brain Proteomes from Inhibitor Treated Mice.
Inhibitors were administered to wild-type C57Bl/6J by oral gavage in a vehicle of polyethylene glycol.

Consider `C[C@H]1CC[C@H](C)N1c1cc(C(F)(F)F)ccc1CN1CCN(C(=O)n2ccc(C(=O)O)n2)CC1` [Example 360, 1-(4-(2-((2S,5S)-2,5-dimethylpyrrolidin-1-yl)-4-(trifluoromethyl)benzyl)piperazine-1-carbonyl)-1H-pyrazole-3-carboxylic acid], for which the “MAGL % inh. 5 mg/kg (mouse)” value was “D (% inhibition is greater than or equal to 0% and less than 25%)”.
In the case of `O=C(O)c1nn(C(=O)N2CCC3(CCN(Cc4cccc(Cl)c4C(F)(F)F)C3)CC2)cc1Cl` [Example 26, 4-Chloro-1-(2-(3-chloro-2-(trifluoromethyl)benzyl)-2,8-diazaspiro[4.5]decane-8-carbonyl)-1H-pyrazole-3-carboxylic Acid], the “MAGL % inh. 5 mg/kg (mouse)” value is “D (% inhibition is greater than or equal to 0% and less than 25%)”.
With `CN(Cc1cc(C(F)(F)F)ccc1N1CCCC1)C1(C)CCN(C(=O)n2ccc(C(=O)O)n2)CC1` [Example 384, 1-(4-methyl-4-(methyl(2-(pyrrolidin-1-yl)-5-(trifluoromethyl)benzyl)amino)piper-idine-1-carbonyl)-1H-pyrazole-3-carboxylic acid], the “MAGL % inh. 5 mg/kg (mouse)” value was “D (% inhibition is greater than or equal to 0% and less than 25%)”.
In the case of `C[C@@H]1CN(Cc2ccc(C(F)(F)F)cc2N2CCCC2)CCN1C(=O)n1ccc(C(=O)O)n1` [Example 327, (R)-1-(2-methyl-4-(2-(pyrrolidin-1-yl)-4-(trifluoromethyl)benzyl)piperazine-1-carbonyl)-1H-pyrazole-3-carboxylic acid], the “MAGL % inh. 5 mg/kg (mouse)” value is “D (% inhibition is greater than or equal to 0% and less than 25%)”.
Under `O=C(O)c1ccn(C(=O)N2CCC3(CCN(Cc4cc(Cl)cc(Cl)c4Cl)C3)CC2)n1` [Example 337, 1-(2-(2,3,5-trichlorobenzyl)-2,8-diazaspiro[4.5]decane-8-carbonyl)-1H-pyrazole-3-carboxylic acid] stands “D (% inhibition is greater than or equal to 0% and less than 25%)”.
For the molecule `C[C@@H]1C[C@@H](N(C)Cc2cccc(C(F)(F)F)c2)CCN1C(=O)n1ccc(C(N)=O)n1` [Example 260, 1-((2R,4S)-2-methyl-4-(methyl(3-(trifluoromethyl)benzyl)amino)piperidine-1-carbonyl)-1H-pyrazole-3-carboxamide], the “MAGL % inh. 5 mg/kg (mouse)” value was “A (% inhibition is greater than or equal to 75%)”.
As to `C[C@@H]1CN(Cc2ccc(-c3ccccc3)cc2Cl)CCN1C(=O)n1ccc(C(=O)O)n1` [Example 291, (R)-1-(4-((3-chloro-[1,1′-biphenyl]-4-yl)methyl)-2-methylpiperazine-1-carbonyl)-1H-pyrazole-3-carboxylic acid], the “MAGL % inh. 5 mg/kg (mouse)” value is “C (% inhibition is greater than or equal to 25% and less than 50%)”.
Under `O=C(O)c1ccn(C(=O)N2C[C@H]3C[C@H](Oc4cc(Cl)cc(Cl)c4)C[C@H]3C2)n1` [Example 230, 1-(trans-5-(3,5-dichlorophenoxy)octahydrocyclo-penta[c]pyrrole-2-carbonyl)-1H-pyrazole-3-carboxylic acid] stands “D (% inhibition is greater than or equal to 0% and less than 25%)”.
In the case of `C[C@@H]1CC[C@@H](C)N1c1cc(C(F)(F)F)ccc1CN1CCN(C(=O)n2ccc(C(=O)O)n2)CC1` [Example 359, 1-(4-(2-((2R,5R)-2,5-dimethylpyrrolidin-1-yl)-4-(trifluoromethyl)benzyl)piperazine-1-carbonyl)-1H-pyrazole-3-carboxylic acid], the “MAGL % inh. 5 mg/kg (mouse)” value was “D (% inhibition is greater than or equal to 0% and less than 25%)”.
For `Cc1ccc(Oc2cccc(CN3CCN(C(=O)n4ccc(C(=O)O)n4)CC3)c2)cc1` [Example 251, 1-(4-(3-(p-tolyloxy)benzyl)piperazine-1-carbonyl)-1H-pyrazole-3-carboxylic acid] the value was “D (% inhibition is greater than or equal to 0% and less than 25%)”.
